Data published in ChEMBL document CHEMBL1136919, “Synthesis and P2Y receptor activity of nucleoside 5'-phosphonate derivatives” (Bioorg Med Chem Lett, 2009).
One block for each molecule: values may come before it.

What was measured:
Type in all cases: functional, cell-based
[1] = biological target: P2Y purinoceptor 4 (Homo sapiens) (UniProt P51582); assay: Agonist activity at human P2Y4 receptor expressed in human 1321N1 cells coexpressing phospholipase C-activating G protein assessed as inositol phosphate production at 10 uM by scintillation proximity assay
P2Y purinoceptor 2 [2] = biological target: T1, P2Y purinoceptor 2 (Homo sapiens, UniProt P41231); assay: Agonist activity at human P2Y2 receptor expressed in human 1321N1 cells coexpressing phospholipase C-activating G protein assessed as inositol phosphate production by scintillation proximity assay
P2Y purinoceptor 6 [3] = biological target: T2, P2Y purinoceptor 6 (Homo sapiens, UniProt Q15077); assay: Agonist activity at human P2Y6 receptor expressed in human 1321N1 cells coexpressing phospholipase C-activating G protein assessed as inositol phosphate production at 10 uM by scintillation proximity assay
P2Y purinoceptor 2 [4] = biological target: T1, P2Y purinoceptor 2; assay: Agonist activity at human P2Y2 receptor expressed in human 1321N1 cells coexpressing phospholipase C-activating G protein assessed as inositol phosphate production by scintillation proximity assay relative to UTP
P2Y purinoceptor 6 [5] = biological target: T2, P2Y purinoceptor 6; assay: Agonist activity at human P2Y6 receptor expressed in human 1321N1 cells coexpressing phospholipase C-activating G protein assessed as inositol phosphate production by scintillation proximity assay
P2Y purinoceptor 2 [6] = biological target: T1, P2Y purinoceptor 2; assay: Agonist activity at human P2Y2 receptor expressed in human 1321N1 cells coexpressing phospholipase C-activating G protein assessed as inositol phosphate production at 10 uM by scintillation proximity assay

T1 sequence (P41231 whole entry): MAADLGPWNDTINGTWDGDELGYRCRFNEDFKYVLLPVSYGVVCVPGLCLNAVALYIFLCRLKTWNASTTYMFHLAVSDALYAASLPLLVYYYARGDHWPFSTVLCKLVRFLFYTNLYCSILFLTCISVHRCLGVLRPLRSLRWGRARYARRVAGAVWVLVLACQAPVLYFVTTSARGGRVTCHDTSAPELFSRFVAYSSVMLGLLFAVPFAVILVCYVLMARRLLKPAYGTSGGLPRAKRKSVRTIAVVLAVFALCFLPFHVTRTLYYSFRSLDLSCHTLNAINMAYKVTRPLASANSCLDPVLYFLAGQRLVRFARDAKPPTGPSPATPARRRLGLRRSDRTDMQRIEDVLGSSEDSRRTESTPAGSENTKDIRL
Chain of P2Y purinoceptor 4 (Homo sapiens) (P51582 whole entry): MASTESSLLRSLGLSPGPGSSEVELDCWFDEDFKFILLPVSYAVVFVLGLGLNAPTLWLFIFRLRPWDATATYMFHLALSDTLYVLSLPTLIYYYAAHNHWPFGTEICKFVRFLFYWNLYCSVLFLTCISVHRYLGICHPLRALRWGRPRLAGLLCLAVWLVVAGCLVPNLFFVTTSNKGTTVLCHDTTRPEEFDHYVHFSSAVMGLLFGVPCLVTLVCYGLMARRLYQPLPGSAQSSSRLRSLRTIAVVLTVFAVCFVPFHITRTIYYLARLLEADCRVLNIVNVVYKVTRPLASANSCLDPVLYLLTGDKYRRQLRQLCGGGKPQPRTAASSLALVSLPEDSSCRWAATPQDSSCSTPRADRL
T2 sequence (Q15077 whole entry): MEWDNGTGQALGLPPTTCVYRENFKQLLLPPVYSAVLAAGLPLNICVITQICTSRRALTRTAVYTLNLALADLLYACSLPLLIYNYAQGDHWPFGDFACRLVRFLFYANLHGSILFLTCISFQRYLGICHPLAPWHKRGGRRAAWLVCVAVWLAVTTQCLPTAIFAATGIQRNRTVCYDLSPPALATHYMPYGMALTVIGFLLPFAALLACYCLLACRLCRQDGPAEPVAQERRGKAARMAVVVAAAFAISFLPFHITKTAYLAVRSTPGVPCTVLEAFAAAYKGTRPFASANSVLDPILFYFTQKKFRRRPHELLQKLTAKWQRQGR

Emax [1]: < 50%
EC50 (P2Y purinoceptor 2 [2]): 1400 nM
SMILES: Nc1ncnc2c1ncn2[C@@H]1O[C@H](CP(=O)(O)OP(=O)(O)OP(=O)(O)O)[C@@H](O)[C@H]1O

EC50 (P2Y purinoceptor 6 [3]): > 10000 nM
SMILES: O=c1ccn([C@@H]2O[C@H](COP(=O)(O)OP(=O)(O)OP(=O)(O)O)[C@@H](O)[C@H]2O)c(=O)[nH]1

EC50 (P2Y purinoceptor 2 [2]): 8600 nM
SMILES: O=c1ccn([C@@H]2O[C@H](CP(=O)(O)OP(=O)(O)OP(=O)(O)O)[C@@H](O)[C@H]2O)c(=O)[nH]1

Activity (P2Y purinoceptor 2 [4]): 50%
EC50 (P2Y purinoceptor 6 [5]): 1900 nM
EC50 (P2Y purinoceptor 2 [2]): 3400 nM
SMILES: O=c1ccn([C@@H]2O[C@H](CP(=O)(O)OP(=O)(O)O)[C@@H](O)[C@H]2O)c(=O)[nH]1

Activity (P2Y purinoceptor 2 [4]): < 50%
EC50 (P2Y purinoceptor 2 [2]): 1600 nM
SMILES: O=c1ccn([C@@H]2O[C@H](CCP(=O)(O)O)[C@@H](O)[C@H]2O)c(=O)[nH]1

Emax [1]: < 50%
EC50 (P2Y purinoceptor 2 [2]): 1000 nM
SMILES: O=c1ccn([C@@H]2O[C@H](/C=C/P(=O)(O)OP(=O)(O)OP(=O)(O)O)[C@@H](O)[C@H]2O)c(=O)[nH]1

Emax (P2Y purinoceptor 2 [6]): < 50%
SMILES: O=c1ccn([C@@H]2O[C@H](COP(=O)(O)OP(=O)(O)C[C@H]3O[C@@H](n4ccc(=O)[nH]c4=O)[C@H](O)[C@@H]3O)[C@@H](O)[C@H]2O)c(=O)[nH]1
